Experimental findings from patent US11058738B2, “Herbal preparation for accelerating wounds and skin inflammations healing, especially for treatment of herpes and acne, and its application” (WYŻSZA SZKOŁA MEDYCZNA W BIAŁYMSTOKU, priority 2015, dated 2021) are described below.

Molecules are shown by their SMILES.

In one assay the test system is open wounds. As to the kind of experiment: Epithelialization and wound healing in mammals with open wounds. The assay is classed as in vivo. How it is done: A following semi-solid preparation was prepared for the study which was obtained by mixing together: • 40% w/w Melittis melissophyllum L. from the whole plant, • 20% w/w of 96% ethyl alcohol, • 40% w/w Vaseline album—a hydrocarbon based substance used in lipophilic ointments.
The substance, etched by ethyl alcohol, is dissolved with help of heat in a smooth ointment medium for better dispersion ofbiologically active substances contained in the test extract. It could also be mixed in a cold lipophilic medium. It is important that the substance has been dissolved in the medium at the concentration below saturation.
In the study three groups of mammals with open wounds were involved:
I control group—no treatment was applied to the wound, even antiseptic one.
II group—a typical antiseptic agent was used, chlorhexidine, in accordance with a standard protocol regarding a treatment of an infected wound.
III group—the herbal preparation with a Melittis melissophyllum L. extract was used.
The herbal preparation applied in a treatment of open wounds. It was used in a similar way as described in Example I. The experiment confirmed that the herbal preparation based on Melittis melissophyllum L. definitely accelerates repair processes during the wound healing.

The subject of assay [1] is neutrophil white blood cells from the wound surface. Nature of the assay: Phagocytic activity of white blood cells (latex particles) from the healing wound surface. In kind it is in vivo, mammals. How it is done: Phagocytic activity of white blood cells was assessed using phagocytic index (PI)—a percentage of phagocytes containing absorbed latex particles, and an amount of phagocytes (IF)—the average number of particles per phagocyte.
The established phagocytic activity of neutrophil white blood cells from the wound surface in different periods of the wound healing, i.e. an increase in phagocytic index and number of phagocytes due to presence of the Melittis melissophyllum L. extract, is shown in Table 2. It was found for the first time that the Melittis melissophyllum L. extract has a high therapeutic activity during a wound healing period in all stages of the wound healing, accelerating the wound repair process and cells proliferation, therefore ensuring the complete wound healing much earlier.

For `[H]/N=C(\N/C(=N/[H])NCCCCCCNC(=N)NC(=N)Nc1ccc(Cl)cc1)Nc1ccc(Cl)cc1` [Chlorhexidine, chlorhexidine], the “complete epithelialization of the wound surface” value with open wounds is listed as 12-th or 13-th. Also, in the assay on open wounds (topical), the Beginning epitelialization is reported as 3.9 ± 0.4 24-hours, the “Beginning of rejection of the crust” value is listed as 7.6 ± 0.5 24-hours, the Complete wound healing is 11.25 ± 0.19 24-hours and the Full crust rejection is given as 10.5 ± 0.3 24-hours. Also, in assay [1] (3 day after granulation), the “IF (amount of phagocytes, average number of particles per 1 phagocyte)” value worked out at 10.0 ± 2.5 and the “PI (phagocytic index, percentage of phagocytes containing latex particles)” value was found to be 61.60 ± 9.49%. Also, in assay [1] (5 day after granulation), the “IF (amount of phagocytes, average number of particles per 1 phagocyte)” value is 14.0 ± 3.0 and the “PI (phagocytic index, percentage of phagocytes containing latex particles)” value is given as 59.01 ± 4.58%. In addition, in assay [1] (7 day after granulation), the “IF (amount of phagocytes, average number of particles per 1 phagocyte)” value was determined as 11.0 ± 3.0 and the “PI (phagocytic index, percentage of phagocytes containing latex particles)” value is recorded as 48.20 ± 5.51%.
